Data from patent US12071488B2, “Method of sensitizing cancer cells to anti-cancer treatment” (TWO TO BIOTECH LTD., priority 2017, dated 2024).

Columns and labels:
[1] = tested on: human ovarian cancer cells (OV90); experiment: Relative tumor volume in nude mice inoculated with human ovarian cancer cells; type: in vivo; settings: OV90 tumors
Procedure: During the treatment period, each mouse was weighted, and the tumor size was measured by Digital caliper.
When the tumors exceeded a volume of 40 mm^3 or 50 mm^3 (for OV90 and Panc1, respectively), the mice were randomly divided into four groups of 8 mice each, as follows. A control group was treated with saline only, the APC1-treated group was treated three times a week with doses of APC1 at 15 mg/kg each, the doxorubicin and APC treated group was treated twice a week with doses of APC1 (at 15 mg/kg each) and once a week with doxorubicin (at 3 mg/kg) and the doxorubicin-treated group was treated with doxorubicin only, once a week at a dose of 3 mg/kg. These dosing protocols were repeated throughout the experiment, namely for 5 weeks.

MDA-MB-468 cells = experiment: Analysis of apoptosis in MDA-MB-468 cells with APC1 and Herceptin; type: cell-based, human; settings: Herceptin 12 μg/ml, APC1 250 μg/ml (FIG. 9)
From the text: (§1) Cells were examined for apoptosis or HER2 expression using FACS analysis. The HER2 antibody used was abcam ab16901. The marker Annexin (Enco) was used for assessment of apoptosis.

[2] = tested on: human TNBC tumors (MDA-MB-231); experiment: Relative tumor volume in nude mice inoculated with TNBC cells; type: in vivo; settings: MDA-MB-231 tumors
From the text: To this end, mice were inoculated with TNBC cells as detailed above, briefly 32 nude mice were inoculated subcutaneously with TNBC cells (MDA-MB-231, 8×10^6 cells per mouse).

Notch3 receptor = experiment: Western blot analysis of Notch3 receptor in membrane fraction of MDA-MB-231 cells; type: cell-based, human
Procedure: MDA-MB-231 cells (0.8×10^6) were seeded on five 75 cm^2 flasks in 25 ml DMEM (41965039 Gibco) medium comprising 10% fetal bovine serum (FBS), Gentamycin Sulfate (03-035-1C Biological industries) and Amphotericin B (03-029-1C Biological industries). Cells were incubated overnight in an incubator. […]
Media was then removed and the cells were scrapped off the flask by a cell scraper into 1.8 ml fresh DMEM media. Cells were collected into 2 ml Eppendorf tubes in two fractions: cytosolic proteins and membrane proteins that were extracted by Membrane Protein Extraction Kit (Thermo scientific #89842). Protease inhibitors (Sigma p2714) and phosphatase inhibitors (Sigma P5726) were added to the Permeabilization and Solubilization Buffers, as recommended by the manufacturer.
Samples were prepared for western blotting as follows: sample buffer (invitrogen cat #NP0007, 4-fold concentrated) and sample reducing agent (Invitrogen cat #NP0009, 10-fold concentrated) were added to each sample and the samples were boiled for 5 minutes. […]
The membrane was washed 3 times using TBST, and the secondary antibody αRabbit-HRP was then added (dilution 1:5000 in 5% milk in TBST) for an incubation of 1 hour at room temperature, with agitation. […] Notch 3 antibody was applied to the membrane and the quantitation of the protein was preformed and calibrated with beta-actin protein.

[3] = tested on: TNBC cancer cells MDA-MB-231 and MDA-MB-468; experiment: Glutathione level in TNBC cells treated with APC1; type: cell-based, human; settings: TNBC cancer cells (FIG. 18C)
Procedure: Gluthatione Assay Kit (Sigma CS0260);
Cell lines (MDA-MB-231, MDA-MB-468) were grown in 75 cm^2 cell culture flask, reached 80-90% confluence. The cells were treated with APC1 (250 μg/ml, 2 times per week for 1 week).
Cells were washed twice with 10 ml PBS, PBS (5 ml) was added and the cells were collected by scrapping, centrifuged at 300G, 4° C. for 5 minutes, the supernatant was then discarded and the cells were treated with APC1 as indicated above. The values of the Glutathione Standard Solutions were used to determine the standard curve and the delta A412/min equivalent to 1 nmole of reduced glutathione per well was calculated according to manufacturer's instructions.
As detailed above, the ovarian cancer cells OV90 and OV3, the pancreatic cancer cells BxPC3 and Panel and the TNBC cancer cells MDA-MB-231 and MDA-MB-468 were treated with APC1 and then the relative glutathione levels in these cells was measured as detailed above.

HER2 receptor = experiment: FACS analysis of HER2 receptor expression on MDA-MB-231 cells; type: cell-based, human
Procedure: Cells (MDA-MB-231, MDA-MB-468 and BTS-149) were grown until 70-80% density was reached. Then the growth medium was discarded and the cells were treated with trypsin and medium as described above. After the cells were detached from the surface, the 20 ml cell suspension (namely cells in medium and Trypsin) were transferred into 50 ml conical tubes and centrifuged at 300 g for 10 min in 4° C. Next, the supernatant was discarded and 2 ml fresh medium were added to the cell pellet. Then the cells were fluidized and 13 ml medium was added to the tubes, thereby suspending the cells in a total of 15 ml medium. The cells were counted and seeded at 10.000-15,000 cells/well on chamber slide in 1 ml growing medium. The chamber slide seeded with cells was placed in the hood for 1 hour and then transferred to the incubator for an overnight incubation under the above conditions. The following day the medium was aspirated from the cell chamber slides and discarded and 1 ml cell treatment medium supplemented with APC1 (at a final concentration of 100 or 250 μg/ml) or control (medium only). Medium was added to each one of the wells (aliquots of APC1 were used in order to avoid repeated freeze-thaw cycle). The cells were then incubated for 24-144 hours. […]

MDA-MB-231 cells [4] = experiment: FACS analysis of apoptosis (Annexin) in MDA-MB-231 cells; type: cell-based, human
From the text: as §1

MDA-MB-231 cells [5] = experiment: Resazurin cell viability assay with APC1 and cisplatin or doxorubicin, MDA-MB-231 cells; type: cell-based, human; settings: MDA-MB-231 pre-incubated with APC1 250 μg/ml; doxorubicin 0.3, 0.5, 1 μM, 48 hours; concentration dependent
Procedure: Cells treated with APC1 were seeded with APC1 at 250 μg/ml. The cells were incubated overnight.
Then the media was aspirated from the plates, and 100 μl of the treatment solutions were added to the appropriate wells, each treatment in triplicates. The cells were incubated for 48 hours.

[6] = APC1 15 mg/kg three times a week
[7] = APC1 15 mg/kg, doxorubicin 3 mg/kg once a week, 5 weeks, control increased linearly

EKGAAFSPIYPRRK (C terminal peptide of KTPAF50) [APC1, polypeptide consisting of the 14 C-terminal amino acid residues of the peptide KTPAF50]
effect on tumor volume compared with doxorubicin-treated group [1, 6]: more pronounced
relative tumor volume [1, 7]: modest increases
level of apoptosis (MDA-MB-468 cells): 15%
effect on tumor volume compared with doxorubicin-treated group [2, 6]: more pronounced
relative tumor volume [2, 7]: moderate increase
incubation period with highest Notch3 expression (Notch3 receptor; APC1 250 μg/ml, 1, 3, 5 or 24 hours): highest for incubations periods of 3 and 5 hours
expression of active Notch3 receptor on the cell membrane (Notch3 receptor; APC1 250 μg/ml, membrane protein fraction): increase
level of glutathione [3]: decreased
dependence of HER2 expression on APC1 concentration (FACS) (HER2 receptor; 100 μg/ml vs 250 μg/ml APC1): concentration dependent
HER2 expression (FACS) (HER2 receptor; MDA-MB-231 cells, two doses of APC1 at 100 or 250 μg/ml, vs control cells): rise in HER2 expression
apoptosis with APC1 per se (MDA-MB-231 cells [4]; APC1 alone (FIG. 5A and FIG. 5B)): insignificant (if any)
level of cellular apoptosis (MDA-MB-231 cells [4]; MDA-MB-231, prolonged incubation, Kadcyla 96 hours (FIG. 6)): low level of apoptosis
sensitivity to doxorubicin (relative cell viability) (MDA-MB-231 cells [5]): increased the sensitivity
